Data on 17 compounds can be found in patent publication US10952436B2, “Microbiocidal quinoline (thio)carboxamide derivatives” (SYNGENTA PARTICIPATIONS AG, priority 2017, dated 2021).

Series [1] concerns Fusarium culmorum. The experiment in a line: microbe, parasite or virus in culture. It counts as cell-based. The settings on record: read-out: control of Fusarium culmorum.
The test system of series [2] is Monographella nivalis (Microdochium nivale). Briefly: Monographella nivalis (Microdochium nivale)/Liquid Culture (Foot Rot Cereals). It counts as cell-based. To be noted: 200 ppm, liquid culture, compared to untreated control, 4-5 days after application, read-out: control of Monographella nivalis.
For series [3], the system named is Magnaporthe grisea (Pyricularia oryzae). The experiment in a line: whole plant or invertebrate. It counts as in vivo. The settings on record: foliar, read-out: control of Magnaporthe grisea.
Series [4] deals with Botryotinia fuckeliana (Botrytis cinerea). The experiment in a line: Botryotinia fuckeliana (Botrytis cinerea)/Liquid Culture (Gray Mould). It counts as cell-based. The settings on record: 200 ppm, liquid culture, compared to untreated control, 3-4 days after application, read-out: control of Botryotinia fuckeliana.
Series [5] concerns Glomerella lagenarium (Colletotrichum lagenarium). Briefly: Glomerella lagenarium (Colletotrichum lagenarium)/Liquid Culture (Anthracnose). The class given is cell-based. To be noted: Colletotrichum orbiculare; 200 ppm; liquid culture, compared to untreated control, 3-4 days after application; read-out: control of Glomerella lagenarium.
In series [6] the test system is Fusarium culmorum. Briefly: whole plant or invertebrate. The settings on record: in Triticum aestivum, read-out: control of Fusarium culmorum. The class given is in vivo.
Series [7] deals with Magnaporthe grisea (Pyricularia oryzae). The experiment in a line: microbe, parasite or virus in culture. The class given is cell-based. To be noted: read-out: control of Magnaporthe grisea.
A further series has as its system Sclerotinia sclerotiorum. Briefly: Sclerotinia sclerotiorum/Liquid Culture (Cottony Rot). The settings on record: read-out: control of Sclerotinia sclerotiorum.

Structures are written as SMILES. Bounds are passed on as bounds.

Method for Sclerotinia sclerotiorum: Mycelia fragments of a newly grown liquid culture of the fungus are directly mixed into nutrient broth (Vogels broth). After placing a (DMSO) solution of test compound into a microtiter plate (96-well format) the nutrient broth containing the fungal material is added. The test plates are incubated at 24° C. and the inhibition of growth is determined photometrically 3-4 days after application.

In the case of `CC(C)CC(F)(Cc1ccccc1)C(=O)Nc1cnc2c(F)cccc2c1` (stereo not shown) [Compound E-1, 2-benzyl-2-fluoro-N-(8-fluoro-3-quinolyl)-4-methyl-pentanamide], the inhibition of growth at 200 ppm (with Fusarium culmorum [1]; in series [2]; in series [4]; in series [5]) was at least 80% in each case. Further, the pest or weed control at 200 ppm (in series [3]; with Fusarium culmorum [6]) was at least 80% throughout.
As a reminder, the melting point is the temperature, or range, at which the solid turns liquid. In turn, `C=C(Cl)CC(Cc1ccccc1)C(=O)Nc1cnc2c(F)cccc2c1` (stereo not shown) [Compound E-6, 2-benzyl-4-chloro-N-(8-fluoro-3-quinolyl)pent-4-enamide] came in with a melting point of 166 to 168 °C. Also, the inhibition of growth at 200 ppm in the series with Fusarium culmorum [1] was at least 80%. Besides, in [2], the inhibition of growth at 200 ppm is at least 80%. For the same compound, the pest or weed control at 200 ppm in series [3] is at least 80%. In addition, the inhibition of growth at 200 ppm in [4] is at least 80%. In series [5], the inhibition of growth at 200 ppm is at least 80%.
Regarding `Cc1nc2c(F)cccc2cc1NC(=O)C(C)(Cc1cccc(F)c1)CC(F)(F)F` (stereo not shown) [Compound E-8, 4,4,4-trifluoro-N-(8-fluoro-2-methyl-3-quinolyl)-2-[(3-fluorophenyl)methyl]-2-methyl-butanamide], the inhibition of growth at 200 ppm (in series [7]; in the series on Fusarium culmorum [1]; in [4]; in [5]) was at least 80% each time. In addition, in the series with Sclerotinia sclerotiorum, the inhibition of growth at 20 ppm was at least 80%. Moreover, the pest or weed control at 200 ppm (in [3]; in the series with Fusarium culmorum [6]) was at least 80% each time.
In the case of `Cc1nc2c(Cl)cccc2cc1NC(=O)C(C)(Cc1ccccc1)CC(C)C` (stereo not shown) [Compound E-13, 2-benzyl-N-(8-chloro-2-methyl-3-quinolyl)-2,4-dimethyl-pentanamide], the melting point is 99 to 100 °C. In addition, the inhibition of growth at 200 ppm in [7] is at least 80%. Further, in the series on Sclerotinia sclerotiorum, the inhibition of growth at 20 ppm was at least 80%. Moreover, the inhibition of growth at 200 ppm with Fusarium culmorum [1] is at least 80%. Further, the inhibition of growth at 200 ppm in [2] is at least 80%. In [3], the pest or weed control at 200 ppm was at least 80%. Besides, the inhibition of growth at 200 ppm in [4] was at least 80%. The inhibition of growth at 200 ppm in series [5] is at least 80%.
For the compound `Cc1nc2c(Cl)cccc2cc1NC(=O)C(C)(Cc1ccccc1)CC(F)(F)F` (stereo not shown) [Compound E-17, 2-benzyl-N-(8-chloro-2-methyl-3-quinolyl)-4,4,4-trifluoro-2-methyl-butanamide], the melting point lay within 47 to 50 °C. In addition, in [7], the inhibition of growth at 200 ppm is at least 80%. Further, the inhibition of growth at 20 ppm with Sclerotinia sclerotiorum was at least 80%. Moreover, the inhibition of growth at 200 ppm in the series with Fusarium culmorum [1] is at least 80%. Also, the inhibition of growth at 200 ppm in [2] was at least 80%. In addition, the pest or weed control at 200 ppm in [3] is at least 80%. In addition, in series [4], the inhibition of growth at 200 ppm is at least 80%. Besides, the inhibition of growth at 200 ppm in series [5] is at least 80%.
In the case of `CC(Cc1ccc(F)cc1)(CC(F)(F)F)C(=O)Nc1cnc2c(F)cccc2c1` (stereo not shown) [Compound E-18, 4,4,4-trifluoro-2-[(4-fluorophenyl)methyl]-N-(8-fluoro-3-quinolyl)-2-methyl-butanamide], the inhibition of growth at 200 ppm (in series [7]; with Fusarium culmorum [1]; in series [2]; in series [4]; in series [5]) was at least 80% each time. In addition, the inhibition of growth at 20 ppm in the series with Sclerotinia sclerotiorum is at least 80%. For the same compound, the pest or weed control at 200 ppm in [3] was at least 80%.
As to `Cc1c(NC(=O)C(Cc2ccccc2)CC(C)C)cnc2c(F)cccc12` (stereo not shown) [Compound E-19, 2-benzyl-N-(8-fluoro-4-methyl-3-quinolyl)-4-methyl-pentanamide], the inhibition of growth at 200 ppm (in [7]; in the series with Fusarium culmorum [1]; in [4]; in series [5]) was at least 80% throughout. In the series on Sclerotinia sclerotiorum, the inhibition of growth at 20 ppm was at least 80%. Further, the pest or weed control at 200 ppm (in series [3]; with Fusarium culmorum [6]) was at least 80% in each case.
Consider `C#CCC(C)(Cc1ccccc1)C(=O)Nc1cnc2c(F)cccc2c1` (stereo not shown) [Compound E-26, 2-benzyl-N-(8-fluoro-3-quinolyl)-2-methyl-pent-4-ynamide], for which the melting point is 189 to 191 °C. Further, in [7], the inhibition of growth at 200 ppm is at least 80%. Further, the inhibition of growth at 200 ppm in the series on Fusarium culmorum [1] is at least 80%. Further, in [2], the inhibition of growth at 200 ppm was at least 80%. The pest or weed control at 200 ppm in [3] is at least 80%. For the same compound, the inhibition of growth at 200 ppm in series [4] was at least 80%. Also, the inhibition of growth at 200 ppm in [5] is at least 80%.
As for `CCCCC(C)(Cc1ccccc1)C(=O)Nc1cnc2c(F)cccc2c1` (stereo not shown) [Compound E-27, 2-benzyl-N-(8-fluoro-3-quinolyl)-2-methyl-hexanamide], the melting point was in the range of 135 to 137 °C. Moreover, the inhibition of growth at 200 ppm in series [7] was at least 80%. The inhibition of growth at 200 ppm in the series with Fusarium culmorum [1] is at least 80%. In series [2], the inhibition of growth at 200 ppm is at least 80%. The pest or weed control at 200 ppm in series [3] is at least 80%. Besides, the inhibition of growth at 200 ppm in series [4] was at least 80%.
Take `CC#CCC(Cc1ccccc1)C(=O)Nc1cnc2c(F)cccc2c1` (stereo not shown) [Compound E-29, 2-benzyl-N-(8-fluoro-3-quinolyl)hex-4-ynamide]: the melting point lay within 218 to 220 °C. In addition, in series [7], the inhibition of growth at 200 ppm was at least 80%. Moreover, the pest or weed control at 200 ppm in series [3] is at least 80%. Besides, in series [4], the inhibition of growth at 200 ppm was at least 80%.
For the compound `CC#CCC(C)(Cc1ccccc1)C(=O)Nc1cnc2c(F)cccc2c1` (stereo not shown) [Compound E-30, 2-benzyl-N-(8-fluoro-3-quinolyl)-2-methyl-hex-4-ynamide], the melting point fell in the range of 136 to 138 °C. In addition, the inhibition of growth at 200 ppm in series [7] is at least 80%. The inhibition of growth at 200 ppm in the series with Fusarium culmorum [1] is at least 80%. Also, the inhibition of growth at 200 ppm in [2] is at least 80%. Also, the pest or weed control at 200 ppm in [3] was at least 80%. Also, the inhibition of growth at 200 ppm in series [4] was at least 80%.
With `CC(Cc1ccccc1)(CC(F)(F)F)C(=O)Nc1cnc2c(F)cccc2c1` (stereo not shown) [Compound E-80, 2-benzyl-4,4,4-trifluoro-N-(8-fluoro-3-quinolyl)-2-methyl-butanamide], the inhibition of growth at 200 ppm (in series [7]; with Fusarium culmorum [1]; in [2]; in [4]; in [5]) was at least 80% throughout. Besides, the inhibition of growth at 20 ppm in the series on Sclerotinia sclerotiorum is at least 80%. The pest or weed control at 200 ppm (in series [3]; in the series with Fusarium culmorum [6]) was at least 80% in each case.
Compound `C=C(C)CC(Cc1ccccc1)C(=O)Nc1cnc2c(F)cccc2c1C` (stereo not shown) [Compound E-93, 2-benzyl-N-(8-fluoro-4-methyl-3-quinolyl)-4-methyl-pent-4-enamide] returned a melting point of 116 to 118 °C. For the same compound, the inhibition of growth at 200 ppm with Fusarium culmorum [1] was at least 80%. In series [2], the inhibition of growth at 200 ppm is at least 80%. For the same compound, in series [3], the pest or weed control at 200 ppm was at least 80%. Also, the inhibition of growth at 200 ppm in series [4] was at least 80%. The inhibition of growth at 200 ppm in series [5] is at least 80%.
On to `C=C(C)C[C@@](C)(Cc1ccccc1)C(=O)Nc1cc2cccc(F)c2nc1C` [Compound F-1, (2S)-2-benzyl-N-(8-fluoro-2-methyl-3-quinolyl)-2,4-dimethyl-pent-4-enamide], for which the inhibition of growth at 200 ppm (in series [7]; in the series with Fusarium culmorum [1]; in series [4]; in [5]) was at least 80% in each case. For the same compound, the inhibition of growth at 20 ppm with Sclerotinia sclerotiorum is at least 80%. Further, the pest or weed control at 200 ppm (in [3]; in the series with Fusarium culmorum [6]) was at least 80% in each case.
Consider `C=C(C)C[C@](C)(Cc1ccccc1)C(=O)Nc1cc2cccc(F)c2nc1C` [Compound F-2, (2R)-2-benzyl-N-(8-fluoro-2-methyl-3-quinolyl)-2,4-dimethyl-pent-4-enamide], for which the inhibition of growth at 200 ppm (in series [7]; in the series with Fusarium culmorum [1]; in [4]; in series [5]) was at least 80% throughout. In the series on Sclerotinia sclerotiorum, the inhibition of growth at 20 ppm is at least 80%. The pest or weed control at 200 ppm (in [3]; with Fusarium culmorum [6]) was at least 80% throughout.
Consider `C=C(C)C[C@](C)(Cc1ccccc1)C(=O)Nc1cnc2c(F)cccc2c1C` [Compound F-6, (2R)-2-benzyl-N-(8-fluoro-4-methyl-3-quinolyl)-2,4-dimethyl-pent-4-enamide], for which the inhibition of growth at 200 ppm (in [7]; with Fusarium culmorum [1]; in series [2]; in series [4]; in series [5]) was at least 80% throughout. The inhibition of growth at 20 ppm in the series with Sclerotinia sclerotiorum is at least 80%. In addition, the pest or weed control at 200 ppm (in [3]; in the series with Fusarium culmorum [6]) was at least 80% each time.
As to `C=C(C)C[C@@](C)(Cc1ccccc1)C(=O)Nc1cnc2c(F)cccc2c1` [Compound F-21, (2S)-2-benzyl-N-(8-fluoro-3-quinolyl)-2,4-dimethyl-pent-4-enamide], the melting point is 132 to 135 °C. Moreover, the inhibition of growth at 200 ppm with Fusarium culmorum [1] is at least 80%. The inhibition of growth at 200 ppm in series [2] is at least 80%. In addition, in series [3], the pest or weed control at 200 ppm is at least 80%. The inhibition of growth at 200 ppm in series [4] was at least 80%. Further, the inhibition of growth at 200 ppm in series [5] was at least 80%. Besides, the pest or weed control at 200 ppm in the series with Fusarium culmorum [6] was at least 80%.
